Like-named read-outs stand apart in the source and are kept apart here.
What was measured:
[1] = system: Her2 low expression human MCF-7 breast tumor cells; assay: Cytotoxicity assay (growth inhibition, CellTiter-Glo) on MCF-7
Procedure: (§1) Her2-positive human BT474 breast tumor cells (BT474 for short), Her2 low expression human MCF-7 breast tumor cells (MCF-7 for short), and human breast tumor cell strain MCF7-Her2 with stable-transfected Her2 outside MCF-7 (MCF-7-Her2 for short) were used (they were prepared by the methods disclosed in the literatures for preparing recombinant cells: Teemu T. Junttila, et al., Breast. Cancer Res. Treat., 2011, 128, 347 and Jeffrey J. Wallin et al., Clin. Cancer Res., 2012, 18, 3901, the contents of which are incorporated herein by reference in their entireties). The growth inhibition of tumor cells by T-CE-040 and T-CE-063 antibody drug conjugates were evaluated. BT474, MCF7-Her2 and MCF-7 were digested with 0.25% (v/v) trypsin and the cells were stripped and then suspended in 100 μL complete medium. 2,000 cells were inoculated in a 96-well plate and cultured, grew adherently overnight at 37° C., then 100 μL T-CE-040 and T-CE-063 antibody drug conjugates with different concentration gradients and the complete medium were added. After 120 hours, relative cell proliferation analysis was performed by adding 50 μL CellTiter-Glo® […] Cell Activation Reagent (CellTiter-GloB Luminescent, Promega).

[2] = system: human breast tumor cell strain MCF7-Her2 with stable-transfected Her2; assay: Cytotoxicity assay (growth inhibition, CellTiter-Glo) on MCF7-Her2
Procedure: as §1

[3] = system: Her2-positive human BT474 breast tumor cells; assay: Cytotoxicity assay (growth inhibition, CellTiter-Glo) on BT474
Procedure: as §1

[4] = Homo sapiens, MCF7, 120 h, read-out: Cytotoxicity assay IC50 MCF7, MCF-7 cells, 120 hours, CellTiter-Glo
[5] = Homo sapiens, 120 h, read-out: Cytotoxicity assay IC50 MCF-Her2, MCF7-Her2 cells, 120 hours, CellTiter-Glo
[6] = Homo sapiens, BT-474, 120 h, read-out: Cytotoxicity assay IC50 BT474, BT474 cells, 120 hours, CellTiter-Glo

Row | Compound | IC50 [1, 4] [nM] | IC50 [2, 5] [nM] | IC50 [3, 6] [nM] | IC50 ([1]; read-out: Cytotoxicity assay IC50 MCF7, MCF-7 cells, 120 hours, CellTiter-Glo) [nM] | IC50 ([2]; read-out: Cytotoxicity assay IC50 MCF-Her2, MCF7-Her2 cells, 120 hours, CellTiter-Glo) [nM] | IC50 ([3]; read-out: Cytotoxicity assay IC50 BT474, BT474 cells, 120 hours, CellTiter-Glo) [nM]
1 | COc1cc2cc(c1Cl)N(C)C(=O)C[C@H](OC(=O)[C@@H](C)N(C)C(=O)CCS)C1(C)O[C@H]1[C@H](C)C1C[C@@](O)(NC(=O)O1)[C@H](OC)/C=C/C=C(\C)C2 (stereo partly drawn) [DM1, N2′-deacetyl-N2′-(3-mercapto-1-oxopropyl)maytansine, reference compound] | 16 | 14 | 21 |  |  | 
2 | COCC(S)(CCC(=O)N(C)[C@H](C)C(=O)OC1CC(=O)N(C)c2cc(cc(OC)c2Cl)C/C(C)=C/C=C/[C@@H](OC)[C@@]2(O)C[C@H](OC(=O)N2)[C@@H](C)[C@@H]2O[C@@]12C)COC (stereo partly drawn) [CE-023] | 460 | 352 | 308 |  |  | 
3 | COCC(C)(CCC(=O)N(C)[C@H](C)C(=O)OC1CC(=O)N(C)c2cc(cc(OC)c2Cl)C/C(C)=C/C=C/[C@@H](OC)[C@@]2(O)C[C@H](OC(=O)N2)[C@@H](C)[C@@H]2O[C@@]12C)SSC (stereo partly drawn) [CE-012] | 65.8 | 133 | 16.4 |  |  | 
4 | COc1cc2cc(c1Cl)N(C)C(=O)C[C@H](OC(=O)[C@H](C)OCCOCCOCCOCCOCCOCCN1C(=O)C=CC1=O)[C@]1(C)O[C@H]1[C@H](C)C1C[C@@](O)(NC(=O)O1)[C@H](OC)/C=C/C=C(\C)C2 [CE-046] | 462 | 232 | 375 |  |  | 
5 | COc1cc2cc(c1Cl)N(C)C(=O)C[C@H](OC(=O)[C@H](C)OCCSC1CC(=O)N(C[C@H]3CC[C@H](C(=O)ON4C(=O)CCC4=O)CC3)C1=O)[C@]1(C)O[C@H]1[C@H](C)C1C[C@@](O)(NC(=O)O1)[C@H](OC)/C=C/C=C(\C)C2 (stereo partly drawn) [CE-037] | 136 | 70.6 | 49.3 |  |  | 
6 | COCC(C)(CCC(=O)N(C)[C@H](C)C(=O)OC1CC(=O)N(C)c2cc(cc(OC)c2Cl)C/C(C)=C/C=C/[C@@H](OC)[C@@]2(O)C[C@H](OC(=O)N2)[C@@H](C)[C@@H]2O[C@@]12C)SSC (stereo partly drawn) [CE-014] | 127 | 68.8 | 19.6 |  |  | 
7 | COc1cc2cc(c1Cl)N(C)C(=O)C[C@H](OC(=O)[C@H]1CC[C@H](CSSC)CC1)[C@]1(C)O[C@H]1[C@H](C)[C@@H]1C[C@@](O)(NC(=O)O1)[C@H](OC)/C=C/C=C(\C)C2 [CE-031] | 15 | 9.2 | 7.5 |  |  | 
8 | COc1cc2cc(c1Cl)N(C)C(=O)CC(OC(=O)[C@@H](C)N(C)C(=O)CCC(SSC)C(C)C)[C@]1(C)O[C@H]1[C@H](C)[C@@H]1C[C@@](O)(NC(=O)O1)[C@H](OC)/C=C/C=C(\C)C2 (stereo partly drawn) [CE-021] | 98.6 | 92.9 | 63.9 |  |  | 
9 | COc1cc2cc(c1Cl)N(C)C(=O)C[C@H](OC(=O)[C@H](C)OCCOCCOCC(=O)ON1C(=O)CCC1=O)[C@]1(C)O[C@H]1[C@H](C)C1C[C@@](O)(NC(=O)O1)[C@H](OC)/C=C/C=C(\C)C2 [CE-045] | 91.2 | 69.2 | 133 |  |  | 
10 | COc1cc2cc(c1Cl)N(C)C(=O)CC(OC(=O)[C@@H](C)N(C)C(=O)CCC(C)(C#N)SSC)[C@]1(C)O[C@H]1[C@H](C)[C@@H]1C[C@@](O)(NC(=O)O1)[C@H](OC)/C=C/C=C(\C)C2 (stereo partly drawn) [CE-018] | 1570 | 399 | 41.7 |  |  | 
11 | COc1cc2cc(c1Cl)N(C)C(=O)C[C@H](OC(=O)[C@H](C)OCCOCCSSC)[C@]1(C)O[C@H]1[C@H](C)[C@@H]1C[C@@](O)(NC(=O)O1)[C@H](OC)/C=C/C=C(\C)C2 [CE-028] | 41 | 33 | 12 |  |  | 
12 | COCC(S)(CCC(=O)N(C)[C@@H](C)C(=O)OC1CC(=O)N(C)c2cc(cc(OC)c2Cl)C/C(C)=C/C=C/[C@@H](OC)[C@@]2(O)C[C@H](OC(=O)N2)[C@@H](C)[C@@H]2O[C@@]12C)COC (stereo partly drawn) [CE-024] | 23.1 | 50 | 20.1 |  |  | 
13 | COc1cc2cc(c1Cl)N(C)C(=O)C[C@H](OC(=O)[C@H](C)N(C)[C@@H](CCSSC)C(F)(F)F)[C@]1(C)O[C@H]1[C@H](C)[C@@H]1C[C@@](O)(NC(=O)O1)[C@H](OC)/C=C/C=C(\C)C2 (single isomer, unassigned) [CE-029] | 2 | 1.7 | 0.85 |  |  | 
14 | COCC(C)(CCC(=O)N(C)[C@@H](C)C(=O)O[C@H]1CC(=O)N(C)c2cc(cc(OC)c2Cl)C/C(C)=C/C=C/[C@@H](OC)[C@@]2(O)C[C@H](OC(=O)N2)[C@@H](C)[C@@H]2O[C@@]12C)SSC (stereo partly drawn) [CE-015] |  |  |  | 3 | 7.1 | 6.3

— patent US10449258B2, “Antibody drug conjugate, intermediate, preparation method, pharmaceutical composition and uses thereof” (XDCEXPLORER (SHANGHAI) CO., LTD., priority 2015, dated 2019)
